These results are taken from ChEMBL document CHEMBL1201862, “PubChem BioAssay data set” (2004).

What all share (assay): NCI anticancer screen, dose series, 48 h
Experiment [1] has as its system KM12.
For experiment [2], the system named is CAKI-1.
The test system of experiment [3] is SF-539.
In experiment [4] the test system is OVCAR-8.
For experiment [5], the system named is OVCAR-3.
The subject of experiment [6] is UACC-62.
In experiment [7] the test system is HOP-62.
In experiment [8] the test system is CCRF-CEM.
The subject of experiment [9] is NCI-H460.
The subject of experiment [10] is Malme-3M.
In experiment [11] the test system is UO-31.
Experiment [12] deals with U-251.
Experiment [13] concerns LOX IMVI.
Experiment [14] has as its system SN12C.
Experiment [15] relates to HL-60.
In experiment [16] the test system is OVCAR-5.
In experiment [17] the test system is A498.
In experiment [18] the test system is OVCAR-4.
Experiment [19] relates to HCT-116.
Experiment [20] has as its system M14.

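1) Cells in 96-well plates. 2) Compound, 48 h, 5 concentrations. 3) Linear interpolation between surrounding doses. 4) Unreached endpoint = highest concentration. GI50: concentration for 50% inhibition of growth.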 Active and inactive are the calls of the source. Rule as the data show it: active = GI50 up to about 1.1 µM and inactive = higher.

With `O=P1(Oc2ccc(Cl)cc2Cl)Oc2cc3ccccc3cc2O1`, the GI50 in [1] was 43.8 µM (inactive); in [2], > 71.8 µM (inactive); in [3], > 84.9 µM (inactive); in experiment [4], 69 µM (inactive); in experiment [5], 28.4 µM (inactive); in experiment [6] it was 43.7 µM (inactive). In addition, the GI50 in experiment [7] was 71.8 µM (inactive); in [8] it was 35.5 µM (inactive); in [9] it was 49.9 µM (inactive); in experiment [10], > 100 µM (inactive); in [11], 24.9 µM (inactive); in [12], 81.7 µM (inactive). For the same compound, the GI50 is 68.9 µM (inactive) in experiment [13]; > 94.4 µM (inactive) in experiment [14]; 21.5 µM (inactive) in [15]; > 100 µM (inactive) in [16]; 29.1 µM (inactive) in experiment [17]; 76 µM (inactive) in experiment [18]. Further, in experiment [19], the GI50 was > 78.2 µM (inactive).

Consider `Cc1nc(O)nc(N/N=C/c2ccc(Cl)cc2)c1C(=O)NC(C)(CO)CO`, for which the GI50 in experiment [1], in experiment [2], in [4], in experiment [5], in experiment [6] and in experiment [7] was > 100 µM (inactive) in each case. Moreover, the GI50 in [8], in [9], in experiment [10], in [11], in experiment [12] and in experiment [20] was > 100 µM (inactive) in each case. For the same compound, the GI50 in experiment [13], in experiment [14], in experiment [15], in experiment [16], in experiment [17] and in experiment [18] was > 100 µM (inactive) throughout. Besides, the GI50 in experiment [19] was > 100 µM (inactive).

Turning to `CC1=C(O)C(=O)[C@@H]2O[C@@H]2C1=O`, the GI50 is 14.1 µM (inactive) in experiment [1]; 5.69 µM (inactive) in [2]; 15.9 µM (inactive) in experiment [3]; 4.79 µM (inactive) in experiment [4]; 6.5 µM (inactive) in [5]; 8.49 µM (inactive) in [6]. The GI50 is 35.3 µM (inactive) in experiment [7]; 1.6 µM (inactive) in [8]; 19 µM (inactive) in [9]; 6.14 µM (inactive) in [10]; 22.3 µM (inactive) in [11]; 19.4 µM (inactive) in [12]. The GI50 in experiment [13] is 12.5 µM (inactive); in experiment [14] it was 19.3 µM (inactive); in experiment [15], 2.2 µM (inactive); in experiment [16], 16.3 µM (inactive); in [17] it was 7.13 µM (inactive); in experiment [18] it was 14.6 µM (inactive). In [19], the GI50 is 7.36 µM (inactive).

Take `CN(C)c1ccc(/C=C/C(=O)O)cc1`: the GI50 is > 100 µM (inactive) in [1]; > 100 µM (inactive) in [2]; > 100 µM (inactive) in experiment [3]; > 100 µM (inactive) in [4]; 49.3 µM (inactive) in experiment [5]; > 100 µM (inactive) in experiment [6]. The GI50 in experiment [7], in experiment [8], in [9], in [10], in [11] and in experiment [20] was > 100 µM (inactive) each time. Moreover, the GI50 in [13], in [14], in experiment [15], in experiment [16], in experiment [17] and in experiment [19] was > 100 µM (inactive) each time.

With `N#CC(OC1OC(COC2OC(CO)C(O)C(O)C2O)C(O)C(O)C1O)c1ccccc1` (centres undefined), the GI50 in experiment [1], in [2], in experiment [3], in [4], in experiment [5] and in experiment [6] was > 225 µM (inactive) throughout. For the same compound, the GI50 in experiment [7], in [8], in [9], in experiment [10], in [11] and in experiment [12] was > 225 µM (inactive) throughout. Further, the GI50 in experiment [13] is > 225 µM (inactive); in [14], > 225 µM (inactive); in [15] it was > 225 µM (inactive); in [16] it was > 191 µM (inactive); in experiment [17] it was > 225 µM (inactive); in experiment [18], > 225 µM (inactive). The GI50 in [19] was > 225 µM (inactive).

Turning to `NC(Cc1ccc(CP(=O)(O)O)cc1)C(=O)O` (centres undefined), the GI50 was > 100 µM (inactive) in experiment [1]; 11.5 µM (inactive) in experiment [2]; > 100 µM (inactive) in experiment [3]; > 100 µM (inactive) in experiment [4]; > 100 µM (inactive) in [5]; > 100 µM (inactive) in experiment [6]. The GI50 in experiment [8], in experiment [9], in experiment [11], in experiment [12], in experiment [20] and in experiment [13] was > 100 µM (inactive) in each case. For the same compound, the GI50 in [14], in experiment [15], in [16], in [18] and in experiment [19] was > 100 µM (inactive) each time.

As for `CCOC(=O)/C=C/CC(C)(C)COC(C)=O`, the GI50 in [1] was 0.811 µM (active); in experiment [5], > 10 µM (inactive); in [6] it was > 10 µM (inactive); in experiment [8], > 10 µM (inactive); in [9], > 10 µM (inactive); in experiment [11], > 10 µM (inactive). Besides, the GI50 in experiment [20] was 6.75 µM (inactive); in [13], 6.98 µM (inactive); in experiment [14], > 10 µM (inactive); in experiment [15], > 10 µM (inactive); in experiment [16] it was 9.08 µM (inactive); in experiment [18] it was > 10 µM (inactive). The GI50 in experiment [19] was 6.1 µM (inactive).

With `O=C1C(Cl)N(c2cccc([N+](=O)[O-])c2)C1c1c[nH]c2ccccc12` (centres undefined), the GI50 is 20.2 µM (inactive) in experiment [1]; 15.3 µM (inactive) in [3]; 23.1 µM (inactive) in experiment [4]; 20.5 µM (inactive) in experiment [5]; 13.8 µM (inactive) in experiment [6]; 17.1 µM (inactive) in experiment [7]. The GI50 in experiment [8] is 4.61 µM (inactive); in [9], 12.1 µM (inactive); in [10], 2.36 µM (inactive); in experiment [11] it was 17.5 µM (inactive); in [12] it was 22.2 µM (inactive); in experiment [20], 16.1 µM (inactive). For the same compound, the GI50 in experiment [14] was 28.6 µM (inactive); in experiment [15], 22.3 µM (inactive); in [16] it was 11.9 µM (inactive); in [18], 18.1 µM (inactive); in experiment [19] it was 19.2 µM (inactive).

Turning to `COC(=O)[C@H]1C=NN[C@@H]1C(=O)N1[C@H]2CC3CC[C@@]2(CS1(=O)=O)C3(C)C`, the GI50 in experiment [1], in experiment [2], in experiment [3], in experiment [4], in experiment [7] and in [8] was > 100 µM (inactive) each time. For the same compound, the GI50 in experiment [9], in experiment [10], in [11], in experiment [12], in [20] and in experiment [13] was > 100 µM (inactive) in each case. Further, the GI50 in [14], in experiment [15], in [16], in experiment [17], in experiment [18] and in experiment [19] was > 100 µM (inactive) throughout.
